Values quoted from earlier work as cited in patent US5214030A, “Calcitonin gene-related peptides for treating erectile dysfunctions” (priority 1989, dated 1993).

System: Cynomolgus monkey
Conditions: 1-2 intracavernosal injections per week over 12 months

For COc1ccc(Cc2nccc3cc(OC)c(OC)cc23)cc1OC [papaverine], the “findings in the erectile tissue” value is listed as “extensive fibrous formation in further parts of the erectile tissue”.
